Results: ChEMBL document CHEMBL1148026, “Oxadiazole mannich bases: synthesis and antimycobacterial activity” (Bioorg Med Chem Lett, 2007)
Converted amounts (≈) assume the structure as drawn.

System: Mycobacterium tuberculosis
Assay: Antimycobacterial activity against isoniazid-resistant Mycobacterium tuberculosis by agar dilution method using double dilution technique
Type: functional

Row | SMILES | MIC [µM]
1 | O=[N+]([O-])c1ccc(-c2nn(C(Cc3ccco3)Nc3ccc(S(=O)(=O)c4ccc(NC(Cc5ccco5)n5nc(-c6ccc([N+](=O)[O-])cc6)oc5=S)cc4)cc3)c(=S)o2)cc1 (stereo not given) | 1.74 (≈ 1.53 µg/mL)
2 | O=S(=O)(c1ccc(NC(Cc2ccco2)n2nc(COc3cccc4ccccc34)oc2=S)cc1)c1ccc(NC(Cc2ccco2)n2nc(COc3cccc4ccccc34)oc2=S)cc1 (stereo not given) | 2.12 (≈ 2.01 µg/mL)
3 | O=S(=O)(c1ccc(NC(Cc2ccco2)n2nc(-c3ccccc3)oc2=S)cc1)c1ccc(NC(Cc2ccco2)n2nc(-c3ccccc3)oc2=S)cc1 (stereo not given) | 2.24 (≈ 1.77 µg/mL)
4 | O=S(=O)(c1ccc(NC(c2ccccc2)n2nc(COc3ccccc3)oc2=S)cc1)c1ccc(NC(c2ccccc2)n2nc(COc3ccccc3)oc2=S)cc1 (stereo not given) | 4.98 (≈ 4.19 µg/mL)
5 | O=S(=O)(c1ccc(NC(Cc2ccco2)n2nc(-c3ccc(Nc4ccccc4)cc3)oc2=S)cc1)c1ccc(NC(Cc2ccco2)n2nc(-c3ccc(Nc4ccccc4)cc3)oc2=S)cc1 (stereo not given) | 1.86 (≈ 1.81 µg/mL)
6 | O=S(=O)(c1ccc(NC(c2ccccc2)n2nc(Cc3ccccc3)oc2=S)cc1)c1ccc(NC(c2ccccc2)n2nc(Cc3ccccc3)oc2=S)cc1 (stereo not given) | 5.98 (≈ 4.84 µg/mL)
7 | O=S(=O)(c1ccc(NC(Cc2ccco2)n2nc(COc3ccccc3)oc2=S)cc1)c1ccc(NC(Cc2ccco2)n2nc(COc3ccccc3)oc2=S)cc1 (stereo not given) | 1.14 (≈ 0.968 µg/mL)
8 | O=S(=O)(c1ccc(NC(Cc2ccco2)n2nc(Cc3ccccc3)oc2=S)cc1)c1ccc(NC(Cc2ccco2)n2nc(Cc3ccccc3)oc2=S)cc1 (stereo not given) | 3.24 (≈ 2.65 µg/mL)
9 | O=S(=O)(c1ccc(NC(c2ccccc2)n2nc(-c3ccc(Nc4ccccc4)cc3)oc2=S)cc1)c1ccc(NC(c2ccccc2)n2nc(-c3ccc(Nc4ccccc4)cc3)oc2=S)cc1 (stereo not given) | 4.65 (≈ 4.48 µg/mL)
10 | O=[N+]([O-])c1ccc(-c2nn(C(Nc3ccc(S(=O)(=O)c4ccc(NC(c5ccccc5)n5nc(-c6ccc([N+](=O)[O-])cc6)oc5=S)cc4)cc3)c3ccccc3)c(=S)o2)cc1 (stereo not given) | 3.94 (≈ 3.43 µg/mL)
11 | O=S(=O)(c1ccc(NC(c2ccccc2)n2nc(COc3ccc4ccccc4c3)oc2=S)cc1)c1ccc(NC(c2ccccc2)n2nc(COc3ccc4ccccc4c3)oc2=S)cc1 (stereo not given) | 2.42 (≈ 2.28 µg/mL)
12 | O=S(=O)(c1ccc(NC(Cc2ccco2)n2nc(COc3ccc4ccccc4c3)oc2=S)cc1)c1ccc(NC(Cc2ccco2)n2nc(COc3ccc4ccccc4c3)oc2=S)cc1 (stereo not given) | 1.1 (≈ 1.04 µg/mL)
13 | NNC(=O)c1ccncc1 [ISONIAZID] | 11.4 (≈ 1.56 µg/mL)
14 | O=S(=O)(c1ccc(NC(c2ccccc2)n2nc(COc3cccc4ccccc34)oc2=S)cc1)c1ccc(NC(c2ccccc2)n2nc(COc3cccc4ccccc34)oc2=S)cc1 (stereo not given) | 5.96 (≈ 5.61 µg/mL)
15 | O=S(=O)(c1ccc(NC(c2ccccc2)n2nc(-c3ccccc3)oc2=S)cc1)c1ccc(NC(c2ccccc2)n2nc(-c3ccccc3)oc2=S)cc1 (stereo not given) | 5.42 (≈ 4.23 µg/mL)
